Test results published in US12274726B2, “Enteric aerobization therapy” (LPOXY THERAPEUTICS, INC., priority 2021, dated 2025).

Experiments:
[1] = up to maximum bolus tested, 200 microliters every 6 hours (8 mL/kg per bolus; 32 mL/kg/day)
Procedure: In a separate experiment using the above conditions the tolerance of bolus injection of 100% oxygen gas was tested.

[2] = system: Clostridioides difficile ATCC 43255; conditions: for cure rate: mouse CDI model, 14 days follow-up; for survival: treatment study day 0 to 4, followed for 14 days after inoculum, 10 mice per group
Source text: Because of the more humanlike characteristics for mouse CDI model, it was chosen to evaluate enteric aerobization.
Administration of enteric aerobization therapies presented several challenges with the mouse model. Administration of experimental compounds in rodents is normally performed via gastric gavage using a solution of the test article. However, this could not be accomplished with enteric aerobization therapy because dissolving the mixture prior to administration would result in premature loss of oxygen effervescence before entering the intestine. Further, there is uncertainty that rodents reliably pass enteric coated capsules or tablets from the stomach to the intestine. […] Finally, the small capsule or tablet sizes required for rodent administration severely limits dosages.
Thirty C57BL/6 female mice (18-22 g) fitted with duodenal catheters externalized and fitted with access button ports were purchased from Charles River Laboratories and singly housed in a temperature and humidity-controlled room with a 12-hour light cycle. The mice were divided into 3 groups of 10.
The mice were pretreated with an antibiotic cocktail in their drinking water for 8 consecutive days. This antibiotic cocktail was composed of 1% glucose, 500 mcg/mL kanamycin, 44 mcg/mL gentamicin, 1062.5 units per milliliter colistin, 269 mcg/mL metronidazole, 156 mcg/mL ciprofloxacin, 100 mcg/mL ampicillin, and 56 mcg/mL vancomycin. The antibiotic cocktail and drinking water were replaced every 2 to 3 days. Five days prior to infection the antibiotic water was removed and normal drinking water was provided to the animals. Three days prior to infection the animals received a single dose of clindamycin 10 mg per kilogram via oral administration in a volume of 10 mL per kilogram.
On study Day 0 mice were inoculated with the bacterial suspension of 5×10^5 CFU Clostridioides difficile ATCC 43255 via oral gavage. Eight hours after inoculation administration of vehicle, antibiotic control, and test article was initiated according to the following. The vehicle a.k.a. infection control group of 10 mice received 80 μL per hour 100% pure nitrogen gas via duodenal catheter. The infection control group of 10 mice received 50 mg/kg vancomycin via oral gavage once daily. […] Administration was continued from study day 0 to study day 4, a total of 5 days. The mice were followed for 14 days after inoculum recording daily weights and clinical observations. Animals that appeared severely moribund were euthanized. At the end of the study all animals were humanely euthanized.

Row | Structure (SMILES) | adverse effects of bolus injection [1] | clinical severity (total clinical score) compared to infection control group ([2]; FIG. 9) | animals showing clinical signs of infection/recurrence in the 2nd week after inoculation, after treatment ([2]; days 8-14) | adverse effects due to gas infusion ([2]; efficacy experiments, 3.2 mL/kg/hr, 76.8 mL/kg/day) | cure rate [2] | survival [2]
1 | O=O [EAT, oxygen] | No adverse effects were observed | mildly ill | no recurrent infections | no adverse effects | 100% | 100%
2 | CN[C@H](CC(C)C)C(=O)N[C@H]1C(=O)N[C@@H](CC(N)=O)C(=O)N[C@H]2C(=O)N[C@H]3C(=O)N[C@H](C(=O)N[C@H](C(=O)O)c4cc(O)cc(O)c4-c4cc3ccc4O)[C@H](O)c3ccc(c(Cl)c3)Oc3cc2cc(c3O[C@@H]2O[C@H](CO)[C@@H](O)[C@H](O)[C@H]2O[C@H]2C[C@](C)(N)[C@H](O)[C@H](C)O2)Oc2ccc(cc2Cl)[C@H]1O [vancomycin, reference compound] | – | – | – | – | 30% | 100%
